According to PMC11355195 (Life, 2024):
Values after ≈ are worked out from the molar mass of the structure shown.

Legend:
MCF-7 cells = conditions: at 24 and 48 h; ref Mari et al. (2021) [78]; read-out: IC50, survival of MCF-7 cells; cited from earlier work
[1] = Oxygen radical absorbance capacity (ORAC); conditions: Trolox equivalents
Description: The ORAC (Oxygen Radical Absorbance Capacity) test was carried out using a modified version of the procedure reported by Huang et al.. This test examines the antioxidant capacity of compounds by examining their ability to neutralize oxygen radicals. The method was carried out utilizing a 96-well microplate format. First, 150 µL of fluorescein solution, produced as 8 × 10^−8 M fluorescein in 0.075 M phosphate buffer (pH 7.4), were dispersed to each well. Fluorescein is a fluorescent probe whose fluorescence lowers when it reacts with radicals. Next, 25 µL of the substance or mixture to be evaluated was added to the corresponding wells. Wells containing 25 µL of phosphate buffer served as blanks, and wells containing 25 µL of Trolox solution (from 10 to 100 µm) were utilized as standards. Control wells containing 50 µL phosphate buffer without any radicals were also added to provide a baseline. The reaction was initiated by adding 25 µL of a freshly produced solution of AAPH (2,2′-azobis(2-methylpropionamidine) dihydrochloride) at a concentration of 165.94 mM in phosphate buffer to each well, except for the control wells, at a temperature of 37 °C. AAPH creates peroxyl radicals that induce oxidative stress in the fluorescein solution, simulating free-radical attack. […] The fluorescence in-tensity of the mixture was then monitored at regular intervals for 120 min.

MDA-MB-436 = test: MTT cell viability, MDA-MB-436; format: cell-based, Human
Description: (§1) These cell lines were selected to represent distinct sub-types of breast cancer for extensive investigation. […] The medium was added with 10% heat-inactivated fetal calf serum (FCS) to supply vital growth hormones and nutrients necessary for cell proliferation. Additionally, 1% penicillin streptomycin was administered to avoid bacterial contamination, ensuring the sterility and integrity of the cell cultures. The cell cultures were maintained at 37 °C in a humidified environment containing 5% CO2. This controlled environment mimics physiological conditions in the human body, supporting optimal cell development and function. The humidified atmosphere prevents medium evaporation, while the 5% CO2 concentration maintains optimal pH values in the culture medium. These specialized circumstances and methods ensure that the breast cancer cell lines remain healthy and viable for experimental procedures, delivering dependable and reproducible results for research projects. The standard protocols followed for cultivating these cells are crucial for generating consistent and reliable data. Using well-characterized cell lines from a credible source like ATCC ensures the re-liability and comparability of the experimental outcomes.
(§2) This approach determines cell viability based on the ability of living cells to decrease MTT to a purple, water-insoluble formazan product. Cells were planted in 96-well plates at a density of 1 × 10^4 cells per well in 100 μL of complete culture media, which provides all necessary nutrients for cell growth. […] The cells were then treated with the compounds for 24, 48, and 72 h to determine the effect on cell viability over varied time intervals. Following each incubation time, 20 μL of MTT solution (at a concentration of 5 mg/mL in PBS) were applied to each well. The plates were further incubated for 4 h at 37 °C, during which time live cells decrease the MTT to formazan, creating purple crystals. At the end of the incubation, the medium containing the MTT was carefully aspirated, leaving only the formazan crystals in the bottom of the wells. […]

MDA-MB-231 = test: MTT cell viability, MDA-MB-231; format: cell-based, Human
Description: as §1, §2

COX-1 = biological target: T1, COX-1 (Ovis aries, UniProt P05979); test: COX-1-catalyzed prostaglandin production inhibition; format: biochemical, ram
T1 construct: The COX-1 enzyme was produced from ram seminal vesicles; purchased Cayman Chemical Company, Ann Arbor, MI, USA; host or cells: ram seminal vesicles (tissue)
T1 sequence (P05979 25-600): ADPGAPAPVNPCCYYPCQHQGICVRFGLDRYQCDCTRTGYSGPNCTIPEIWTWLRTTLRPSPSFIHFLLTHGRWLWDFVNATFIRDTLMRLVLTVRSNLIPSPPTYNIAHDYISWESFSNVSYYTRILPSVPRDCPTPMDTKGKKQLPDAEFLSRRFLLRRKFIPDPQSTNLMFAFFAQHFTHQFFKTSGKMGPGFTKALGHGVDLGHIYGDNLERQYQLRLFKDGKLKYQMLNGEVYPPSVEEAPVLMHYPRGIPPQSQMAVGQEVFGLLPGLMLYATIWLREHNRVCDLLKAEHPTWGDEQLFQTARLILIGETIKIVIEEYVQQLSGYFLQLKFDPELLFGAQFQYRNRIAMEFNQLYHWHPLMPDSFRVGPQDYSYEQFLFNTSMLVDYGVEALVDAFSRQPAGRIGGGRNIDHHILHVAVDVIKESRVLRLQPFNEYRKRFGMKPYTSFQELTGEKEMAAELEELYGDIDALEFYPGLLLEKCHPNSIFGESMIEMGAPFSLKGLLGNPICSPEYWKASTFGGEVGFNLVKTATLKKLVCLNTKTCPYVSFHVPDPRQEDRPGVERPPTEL
Description: The COX inhibitory effects of the substances were examined using a COX-1/COX-2-catalyzed prostaglandin production test, using a modified approach by Futaki et al.. The chemicals were dissolved in 4% DMSO to a final concentration of 100 µg/mL.
In this test, one unit of COX-1 or COX-2 enzyme was suspended in a 0.1 M Tris-HCl buffer (pH 7.5) containing hematin ([…]) and phenol (2 mM) as cofactors. The COX-1 enzyme was produced from ram seminal vesicles, while COX-2 was taken from sheep placenta with a purity of 70% (both from Cayman Chemical Company, Ann Arbor, MI, USA). The reaction mixture was preincubated with either the solvent vehicle (4% DMSO) or the test solution for 2 min at 37 °C. […] Arachidonic acid, tagged with radioactive carbon ([1–14C]), serves as a substrate for the COX enzymes. The mixture was then incubated for an additional 2 min at 37 °C. […] The organic solvent phase was removed, and the PGE2 level in the remaining aqueous phase was quantified using a radioimmunoassay with a liquid scintillation counter, which measures the radioactivity (disintegrations per minute, DPM) of the [1–14C]-labeled PGE2. The percentage inhibition of COX-catalyzed prostaglandin production by the test compounds was estimated by comparing the radioactivity of the samples with the solvent vehicle controls. […]

MCF-7 = test: MTT cell viability, MCF-7; format: cell-based, Human
Description: as §1, §2

ABTS scavenging activity = test: ABTS scavenging activity
Text: With a few minor adjustments, the procedure published by Re et al., was used to evaluate the test samples’ capacity to scavenge radicals against the ABTS (2,2′-azinobis-3-ethylbenzothiazoline-6-sulphonate) radical cation.

DPPH scavenging capacity = conditions: 0.1 mM DPPH
Description: The method utilized to test the compound’s efficacy in scavenging DPPH radicals was based on protocols detailed in references, with minor changes. The test was completed in duplicate for each concentration. A solution of 0.1 mM DPPH (2,2-diphenyl-1-picrylhydrazyl) was produced, and the compounds were evaluated at different concentrations ranging from 1 to 500 µg/mL. Ascorbic acid served as the positive control with concentrations ranging from 0.01 to 300 µg/mL [35].

[2] = test system: peripheral blood mononuclear cells (PBMC); test: MTT cell viability, PBMC (normal cell control); format: cell-based; conditions: MTT test, 72 h of treatment (Figure 3)
Description: This approach determines cell viability based on the ability of living cells to decrease MTT to a purple, water-insoluble formazan product. Cells were planted in 96-well plates at a density of 1 × 10^4 cells per well in 100 μL of complete culture media, which provides all necessary nutrients for cell growth. […] The cells were then treated with the compounds for 24, 48, and 72 h to determine the effect on cell viability over varied time intervals. Following each incubation time, 20 μL of MTT solution (at a concentration of 5 mg/mL in PBS) were applied to each well. The plates were further incubated for 4 h at 37 °C, during which time live cells decrease the MTT to formazan, creating purple crystals. At the end of the incubation, the medium containing the MTT was carefully aspirated, leaving only the formazan crystals in the bottom of the wells. To dissolve these crystals, 100 μL of DMSO were administered to each well. […] This formula quantifies the reduction in cell viability in response to the treatments compared to the control. […] Cisplatin, a known anticancer drug, was used as a reference drug at varying concentrations from 0.01 to 50 µg/mL.

[3] = MTT test, 72 h of treatment (Figure 3)

DPPH Scavenging Capacity IC50 (DPPH scavenging capacity) [µg/mL]	Structure (SMILES)	IC50 (MCF-7 cells) [µM]	Oxygen Radical Absorbance Capacity [1] [mmol TE/g]	IC50 (MDA-MB-436; Homo sapiens, MDA-MB-436, 72 h, read-out: IC50 Value ± SD, MDA-MB-436) [µg/mL]	IC50 (MDA-MB-231; Homo sapiens, MDA-MB-231, 72 h, read-out: IC50 Value ± SD, MDA-MB-231) [µg/mL]	IC50 (COX-1) [µM]	IC50 (MCF-7; Homo sapiens, MCF7, 72 h, read-out: IC50 Value ± SD, MCF-7) [µg/mL]	ABTS Scavenging Activity IC50 (ABTS scavenging activity) [µg/mL]	IC50 Value ± SD, MDA-MB-436 (MDA-MB-436; [3]) [µg/mL]	IC50 Value ± SD, MDA-MB-231 (MDA-MB-231; [3]) [µg/mL]	IC50 Value ± SD, MCF-7 (MCF-7; [3]) [µg/mL]	IC50 Value ± SD, PBMC [2] [µg/mL]
	Cc1ccc(C(C)C)cc1O [Carvacrol, 2-methyl-5-(1-methylethyl)phenol]	200	3.535 ± 0.127	9.5 ± 1.15 (≈ 63.2 µM)	9.76 ± 0.23 (≈ 65 µM)	470	5.93 ± 0.77 (≈ 39.5 µM)	107.88 ± 4.46				
188.24 ± 6.46	O=C1O[C@H]([C@@H](O)CO)C(O)=C1O [Ascorbic acid (AA), Ascorbic acid, reference compound]							25.20 ± 3.06				
	N.N.[Cl][Pt][Cl] [Cisplatin, reference compound]								3.96 ± 0.59	4.60 ± 0.66	8.43 ± 0.92	25.36 ± 1.40
